Assay results reported in patent US10745365B2, “Luminogenic and fluorogenic compounds and methods to detect molecules or conditions” (Promega Corporation, priority 2005, dated 2020).
“And” between values parts separate entries of the source, which are not always exact repeats. Identical values can stand only once. Values belong to the molecule of their own block, whether it stands above or below them.

Experiments:
[1] = target: T1, QuantiLum Luciferase (firefly luciferase) (Photinus pyralis, UniProt P08659); test: Luminescence spectra of fluoroluciferins; format: biochemical; settings: pH 7.4
T1 construct: purchased Promega Corporation El 70
T1 sequence (P08659 whole entry): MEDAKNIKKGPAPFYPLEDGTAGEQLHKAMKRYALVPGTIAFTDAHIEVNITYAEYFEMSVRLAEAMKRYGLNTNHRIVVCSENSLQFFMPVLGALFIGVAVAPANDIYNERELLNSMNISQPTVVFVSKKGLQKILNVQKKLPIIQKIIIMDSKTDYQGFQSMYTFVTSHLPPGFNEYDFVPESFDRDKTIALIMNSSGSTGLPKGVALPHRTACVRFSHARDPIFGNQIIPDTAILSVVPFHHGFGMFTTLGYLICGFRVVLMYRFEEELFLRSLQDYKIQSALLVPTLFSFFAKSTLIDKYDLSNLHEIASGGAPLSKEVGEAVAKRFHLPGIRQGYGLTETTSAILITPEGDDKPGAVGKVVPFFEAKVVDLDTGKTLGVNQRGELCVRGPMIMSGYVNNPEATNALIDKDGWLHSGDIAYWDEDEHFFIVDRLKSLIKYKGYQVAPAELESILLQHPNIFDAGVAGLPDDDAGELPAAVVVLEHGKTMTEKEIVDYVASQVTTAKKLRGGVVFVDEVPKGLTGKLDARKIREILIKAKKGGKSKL
Procedure: All compounds except fluoroluciferin and ATP were purchased from Sigma Chemical. ATP was purchased from Amersham/Invitrogen.
Spectra were measured using 0.5s integration with 1 nm increments on a Spex Fluorolog.

[2] = target: T1, QuantiLum Luciferase (firefly luciferase); test: ATP titration of luciferase reactions with luciferin and fluoroluciferins; format: biochemical
Procedure: AU compounds except 5’-fluoroluciferin and DTT were purchased from Sigma Chemical. To some of this reagent 5 mM ATP (Amersham/Invitrogen) was added, then serially diluted by half-logs to 0.05 mM. Reactions were initiated by adding equal volumes (0.1 ml) of reagent and DMEM medium (Gibco/Invitrogen) containing 0.1% Prionex® (Pentapharm) and 1.4×10-5 mg/ml QuantiLum™ Luciferase (Promega Corporation).
For ATP titrations for 7′-fluoroluciferin, reagent was created containing 200 mM HEPES, 200 mM PIPES, 1 mM CDTA, 0.5% Tergitol NP-9, 0.03% Benzyl dodecyldimethyl ammonium bromide, 30 mM thiourea, 10 mM magnesium sulfate, and 0.15 mM 7′-fluoroluciferin. This solution was separated into 3 parts and pH of the reagents were 7.4, 7.2 and 6.7. To some of this reagent, 10 mM ATP (Amersham/Invitrogen) was added. The ATP was serially diluted by quarter-logs from 10 mM to 0.32 mM.
Reactions were initiated by adding equal volumes (0.03 ml) of reagent and DMEM medium (Gibco/Invitrogen) containing 0.1% Prionex® (Pentapharm) and 1.4×10-5 mg/ml QuantiLum™ Luciferase (Promega Corporation).
Luminescence was measured for 0.5 seconds per well using Berthold Orion luminometer.

[3] = target: T1, QuantiLum Luciferase (firefly luciferase); test: pH titration of 7′-fluoroluciferin luciferase reaction; format: biochemical
[4] = target: T2, human recombinant flavin-containing monooxygenase 3 (FMO 3) (Homo sapiens, UniProt P31513); test: Two-step luminescent FMO 3 assay; format: biochemical; settings: fit of Table 33
T2 construct: purchased Sigma Chemical Company F-5053; host or cells: baculovirus infected insect cells (microsomes)
T2 sequence (P31513 1-532): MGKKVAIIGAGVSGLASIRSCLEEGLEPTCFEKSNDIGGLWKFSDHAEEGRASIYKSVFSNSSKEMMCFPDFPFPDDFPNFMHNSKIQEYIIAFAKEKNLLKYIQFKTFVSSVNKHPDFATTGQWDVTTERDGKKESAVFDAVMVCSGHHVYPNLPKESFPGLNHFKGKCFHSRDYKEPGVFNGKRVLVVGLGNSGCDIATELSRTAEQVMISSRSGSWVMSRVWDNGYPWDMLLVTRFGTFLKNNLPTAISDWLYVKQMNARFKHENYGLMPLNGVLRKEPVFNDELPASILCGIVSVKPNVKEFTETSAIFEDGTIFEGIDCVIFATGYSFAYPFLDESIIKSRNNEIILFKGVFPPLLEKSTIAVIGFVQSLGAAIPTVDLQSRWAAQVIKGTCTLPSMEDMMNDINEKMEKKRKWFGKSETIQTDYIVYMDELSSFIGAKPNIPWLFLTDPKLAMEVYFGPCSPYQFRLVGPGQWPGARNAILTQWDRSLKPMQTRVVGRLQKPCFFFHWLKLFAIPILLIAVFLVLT

[5] = target: T3, human recombinant monoamine oxidase A (MAO A) (Homo sapiens, UniProt P21397); test: Two-step bioluminogenic MAO A substrate assay
T3 sequence (P21397 1-527): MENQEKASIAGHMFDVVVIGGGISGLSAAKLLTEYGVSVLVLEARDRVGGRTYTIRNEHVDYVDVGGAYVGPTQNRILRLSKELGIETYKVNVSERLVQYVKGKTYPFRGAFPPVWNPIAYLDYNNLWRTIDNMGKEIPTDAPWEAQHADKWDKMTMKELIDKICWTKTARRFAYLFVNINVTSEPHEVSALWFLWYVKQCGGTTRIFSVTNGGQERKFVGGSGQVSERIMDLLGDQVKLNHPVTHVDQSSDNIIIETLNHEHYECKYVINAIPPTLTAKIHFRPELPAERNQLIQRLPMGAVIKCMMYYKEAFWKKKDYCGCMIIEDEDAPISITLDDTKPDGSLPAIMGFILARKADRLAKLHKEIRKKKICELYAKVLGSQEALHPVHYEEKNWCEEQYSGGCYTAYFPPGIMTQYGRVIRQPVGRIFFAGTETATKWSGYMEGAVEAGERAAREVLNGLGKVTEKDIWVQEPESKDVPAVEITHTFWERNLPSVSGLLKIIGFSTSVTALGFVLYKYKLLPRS

[6] = target: T4, equine alcohol dehydrogenase (Equus caballus, UniProt P00327); test: Effect of inhibitors on the conversion of luciferol by equine alcohol dehydrogenase; format: biochemical; settings: luciferol + equine ADH + NAD+ with 10 μl inhibitor solution, 37° C., 30 min; duplicates #1, #2 (controls 1023, 1087)
T4 construct: purchased Sigma Chem. Co. A9589
T4 sequence (P00327 whole entry): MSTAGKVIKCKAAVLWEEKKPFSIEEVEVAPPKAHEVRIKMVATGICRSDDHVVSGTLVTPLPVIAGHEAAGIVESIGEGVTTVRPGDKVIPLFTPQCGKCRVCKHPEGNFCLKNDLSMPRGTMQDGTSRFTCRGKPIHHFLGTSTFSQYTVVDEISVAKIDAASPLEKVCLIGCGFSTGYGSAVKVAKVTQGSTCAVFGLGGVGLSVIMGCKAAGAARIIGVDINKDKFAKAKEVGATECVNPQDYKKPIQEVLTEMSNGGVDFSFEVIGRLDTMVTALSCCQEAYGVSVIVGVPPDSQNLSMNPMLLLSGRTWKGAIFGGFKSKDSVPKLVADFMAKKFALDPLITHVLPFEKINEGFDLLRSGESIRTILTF
Procedure: Trichloroethanol solution: A 0.48 ml sample of 2,2,2, trichloroethanol (Aldrich T5480-5) was dissolved in water.
Reactions were initiated by addition of 1.5 μl of luciferol solution. Upon addition of the luciferol solution, the reactions were mixed and placed at 37° C.

CYP2C19 = CYP2C19 (Homo sapiens, UniProt P33261); test: biochemical
Chain of CYP2C19 (P33261 whole entry): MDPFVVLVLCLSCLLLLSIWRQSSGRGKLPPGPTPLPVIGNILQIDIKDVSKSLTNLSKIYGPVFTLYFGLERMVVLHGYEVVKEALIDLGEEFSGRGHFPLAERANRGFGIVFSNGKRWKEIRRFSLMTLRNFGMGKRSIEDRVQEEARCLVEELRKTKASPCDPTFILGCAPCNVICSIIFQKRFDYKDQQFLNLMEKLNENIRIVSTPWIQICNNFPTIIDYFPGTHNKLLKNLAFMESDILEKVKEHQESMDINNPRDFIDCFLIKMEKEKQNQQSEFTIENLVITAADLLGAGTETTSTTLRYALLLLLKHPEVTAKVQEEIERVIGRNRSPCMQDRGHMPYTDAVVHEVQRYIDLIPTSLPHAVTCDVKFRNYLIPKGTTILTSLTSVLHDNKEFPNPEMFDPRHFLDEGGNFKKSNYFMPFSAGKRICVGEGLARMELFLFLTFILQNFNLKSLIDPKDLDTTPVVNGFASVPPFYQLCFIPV

[7] = system: human hepatocytes (CYP3A activity)
[8] = target: T5, human recombinant monoamine oxidase B (MAO B) (Homo sapiens, UniProt P27338); test: biochemical
T5 construct: purchased Sigma Chemical Company M-7441; host or cells: baculovirus infected insect cells (microsomes)
T5 sequence (P27338 1-520): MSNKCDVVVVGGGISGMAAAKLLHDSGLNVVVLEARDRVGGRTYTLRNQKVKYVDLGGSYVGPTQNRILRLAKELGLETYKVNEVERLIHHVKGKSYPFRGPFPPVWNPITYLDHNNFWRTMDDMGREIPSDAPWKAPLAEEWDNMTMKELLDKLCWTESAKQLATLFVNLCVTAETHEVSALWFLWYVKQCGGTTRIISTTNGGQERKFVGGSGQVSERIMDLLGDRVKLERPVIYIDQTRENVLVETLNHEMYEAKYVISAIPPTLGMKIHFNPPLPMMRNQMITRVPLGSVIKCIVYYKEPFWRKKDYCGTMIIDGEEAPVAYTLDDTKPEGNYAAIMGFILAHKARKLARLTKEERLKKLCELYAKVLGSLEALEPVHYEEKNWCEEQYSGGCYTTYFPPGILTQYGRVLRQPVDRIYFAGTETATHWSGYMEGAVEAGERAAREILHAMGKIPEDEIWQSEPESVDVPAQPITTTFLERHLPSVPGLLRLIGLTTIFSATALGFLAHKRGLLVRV

[9] = target: T3, human recombinant monoamine oxidase A (MAO A); test: MAO A inhibition (IC50) with substrate MAO-11; format: biochemical; design: purchased Sigma Chemical Company M-7316; host or cells: baculovirus infected insect cells (microsomes)

Structure (SMILES): O=C(O)[C@H]1CSC(c2nc3ccc(O)c(F)c3s2)=N1 [7′-fluoroluciferin]
- red shift of luminescence λmax from regular luciferin [1]: approximately 21 nm
- ATP requirement of luciferase reaction [2]: requirement for ATP is much higher
- pH optima of firefly luciferase reaction [3]: ~7.5

- signal-to-background ratio at the Km value [4]: about 8.5
- MAO specificity by ratio RLUmax/Km ([5]; Table 25): more specific substrate for MAO A
- signal-to-background ratio at the Km value ([5]; fit of Table 22): about 95
Structure (SMILES): CNCCCOc1ccc2nc(C3=N[C@@H](C(=O)O)CS3)ccc2c1 [MAO-7, 6-(3-methylaminopropoxy)quinolinyl-luciferin]

Structure (SMILES): c1cn[nH]c1 [Pyrazol, pyrazol]
- Relative Light Units [6]: 516.4 Relative Light Units and 490.7 Relative Light Units

- IC50 (CYP2C19): 76 µM
Structure (SMILES): NNC(=O)c1ccncc1 [isoniazid]

Structure (SMILES): CC(=O)N1CCN(c2ccc(OCC3COC(Cn4ccnc4)(c4ccc(Cl)cc4Cl)O3)cc2)CC1 (centres unmarked) [ketoconazole]
- CYP3A-dependent luminescence in hepatocytes [7]: inhibition by ketoconazole of both basal and rifampicin-induced activity

Structure (SMILES): NCCc1ccccc1 [phenethylamine]
- IC50 [8]: 20 ± 2 µM
- IC50 [9]: 134 ± 9 µM
